In patent US5962294A, “Compositions and methods for the identification and synthesis of sialyltransferases” (The Regents of the University of California, priority 1993, dated 1999):
Entries after “also recorded” stand apart in the source; their conditions may differ.

T1: rat ST3N (Rattus norvegicus, UniProt Q02734)
T1 sequence (Q02734 29-374 limits assumed): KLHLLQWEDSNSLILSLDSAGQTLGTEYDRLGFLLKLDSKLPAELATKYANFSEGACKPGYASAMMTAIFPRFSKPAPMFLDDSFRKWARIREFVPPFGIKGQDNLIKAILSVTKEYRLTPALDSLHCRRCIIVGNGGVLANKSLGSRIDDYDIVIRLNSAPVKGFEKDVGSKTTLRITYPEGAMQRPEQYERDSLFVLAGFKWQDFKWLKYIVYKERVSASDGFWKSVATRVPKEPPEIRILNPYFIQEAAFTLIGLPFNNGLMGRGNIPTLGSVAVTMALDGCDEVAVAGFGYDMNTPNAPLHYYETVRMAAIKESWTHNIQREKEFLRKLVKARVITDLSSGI

T2: ST3N (Rattus norvegicus, UniProt Q02734)
T2 sequence (Q02734 29-374 limits assumed): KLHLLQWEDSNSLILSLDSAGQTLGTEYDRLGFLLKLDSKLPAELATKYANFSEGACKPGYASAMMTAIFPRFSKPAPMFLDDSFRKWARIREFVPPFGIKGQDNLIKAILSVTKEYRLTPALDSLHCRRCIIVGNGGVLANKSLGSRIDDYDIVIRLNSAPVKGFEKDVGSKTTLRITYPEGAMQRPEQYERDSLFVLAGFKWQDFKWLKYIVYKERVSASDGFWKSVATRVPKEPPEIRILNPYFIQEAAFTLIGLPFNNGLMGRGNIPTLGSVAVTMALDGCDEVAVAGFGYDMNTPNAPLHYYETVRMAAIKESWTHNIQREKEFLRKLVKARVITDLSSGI

T3: ST3O (Sus scrofa, UniProt Q02745)
T3 sequence (Q02745 28-343 limits assumed): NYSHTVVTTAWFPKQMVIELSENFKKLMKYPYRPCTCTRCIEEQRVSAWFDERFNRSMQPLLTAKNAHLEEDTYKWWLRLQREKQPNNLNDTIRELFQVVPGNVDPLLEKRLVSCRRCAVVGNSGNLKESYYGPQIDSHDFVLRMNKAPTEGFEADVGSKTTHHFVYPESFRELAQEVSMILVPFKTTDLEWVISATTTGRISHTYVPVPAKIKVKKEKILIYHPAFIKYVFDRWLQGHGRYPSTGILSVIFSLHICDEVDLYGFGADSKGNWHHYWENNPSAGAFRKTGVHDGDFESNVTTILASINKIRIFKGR

T4: human ST3N (Homo sapiens, UniProt Q11203)
T4 sequence (Q11203 62-375): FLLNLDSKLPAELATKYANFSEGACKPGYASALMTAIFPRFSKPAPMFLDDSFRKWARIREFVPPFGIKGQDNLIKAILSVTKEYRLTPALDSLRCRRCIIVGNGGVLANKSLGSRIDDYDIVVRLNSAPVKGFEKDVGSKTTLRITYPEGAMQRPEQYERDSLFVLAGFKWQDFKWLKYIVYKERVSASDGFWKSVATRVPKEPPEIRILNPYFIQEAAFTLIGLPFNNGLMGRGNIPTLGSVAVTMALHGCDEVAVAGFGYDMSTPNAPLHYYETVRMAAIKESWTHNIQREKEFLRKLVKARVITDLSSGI

T5: ST3 (Homo sapiens, UniProt Q11206)
T5 construct: A truncated form of ST3, lacking the first 39 amino acids of the long-form open reading frame; made in house; host or cells: COS-1 (concentrated culture medium)
T5 sequence (Q11206 41-333): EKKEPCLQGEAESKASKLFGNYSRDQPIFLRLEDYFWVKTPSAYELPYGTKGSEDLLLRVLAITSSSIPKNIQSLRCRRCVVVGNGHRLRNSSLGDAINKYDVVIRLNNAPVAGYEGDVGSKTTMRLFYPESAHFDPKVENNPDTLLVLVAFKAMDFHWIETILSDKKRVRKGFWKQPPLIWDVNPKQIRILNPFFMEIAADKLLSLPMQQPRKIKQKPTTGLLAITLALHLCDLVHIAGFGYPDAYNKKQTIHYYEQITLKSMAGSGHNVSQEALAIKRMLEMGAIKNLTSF


Key:
rat ST3N = target: T1, rat ST3N; assay: Acceptor specificity of soluble rat ST3N fusion protein (Table 3); conditions: acceptor 0.2 mM; relative to LNT
ST3N = target: T2, ST3N; assay: Acceptor specificity of ST3N (Table 4)
ST3O = target: T3, ST3O; assay: Acceptor specificity of ST3O (Table 4); conditions: for Relative rate (%) ST30: acceptor 0.2 mM
human ST3N = target: T4, human ST3N; assay: Acceptor specificity of soluble human ST3N (protein A fusion from COS-1 cells, on IgG Sepharose); conditions: acceptor 0.2 mM; relative to LNT
ST3 = target: T5, ST3; assay: Acceptor specificity of soluble ST3 (AZ3, concentrated COS-1 media); type: biochemical; conditions: for Relative rate (%) ST3: acceptor 0.2 mM
[1] = tested on: acceptor substrate antifreeze glycoprotein (AFGP); assay: Sialyltransferase activity of purified porcine liver α2,3-0 sialyltransferase; type: biochemical; conditions: after third CDP-hexanolamine agarose column
Description: FIG. 4 Purification of the α2,3-0 sialyltransferase on CDP-hexanolamine agarose (column III, CDP elution). […] In columns A and B elution of enzyme activity correlated predominantly with 48 kDa and a 45 kDa protein species, respectively (see inset, SDS-PAGE). These two species, form A and form B of the α2,3 sialyltransferase, had specific activities of 8-10 units/mg protein. The 48 kDA and 45 kDA species were blotted to a PVDF membrane and analyzed by NH2 -terminal sequencing.
The enzyme was purified from a porcine liver Triton X-100 extract by affinity chromatography on three successive columns of CDP-hexanolamineagarose. The elution profile from the first and third purification steps are shown in FIG. 3 and FIG. 4, respectively. […] These two peaks were separated by combining the indicated fractions into pools A and B, these two pools were subsequently found to be enriched in two different molecular weight forms of the α2,3-0 sialyltransferase.
The membranes were extracted three times with buffer (Conradt, H. S. et al., in Sialic Acids 1988 Proceedings of the Japanese-German Symposium on Sialic Acids (Schauer and Yamakawa, eds.) pp. 104-105, Verlag Wissenschaft and Bildung, Kiel [1988]) and the extract was passed over a 1.5 l CDP-hexanolamine agarose column (column 1) (16 umol/ml). After washing the column with 3 L buffer B, the column was eluted with a linear gradient of 0.05 to 1.0 M KCL (2.5 l×2.5 l) in buffer B. Fractions containing α2,3 sialyltransferase were combined into two pools A and B, representing the main part and the trailing end of the peak, respectively (see FIG. 3). The pools were dialysed against buffer B and subjected to another round of affinity chromatography on CDP-hexanolamine agarose (columns IIA and IIB). A 150 ml column was used for pool A and a 30 ml column was used for pool B; two preparations from column I (from total of 4 kg liver) were loaded on the same column in step II. […]

Molecule | Relative rate (%) ST3N (ST3N; acceptor 0.2 mM) | Relative rate (%) ST30 (ST3O) | acceptor substrate for ST3 enzyme (in words) (ST3) | further results
CC(=O)N[C@H]1[C@H](O[C@H]2[C@@H](O)[C@@H](CO)O[C@@H](O[C@H]3[C@H](O)[C@@H](O)C(O)O[C@@H]3CO)[C@@H]2O)O[C@H](CO)[C@@H](O[C@@H]2O[C@H](CO)[C@H](O)[C@H](O)[C@H]2O)[C@@H]1O (stereo partly drawn) [Galβ1,4GlcNAcβ1,3Galβ1,4Glc (LNnT), Galβ1,4GlcNAcβ1,3Galβ1,4Glc] | 4% | 0% |  | Relative activity (%) Rat (rat ST3N): 4%; Relative rate (%) ST3N (ST3N; acceptor 2.0 mM): 18%
CC(=O)N[C@H]1C(O)O[C@H](CO)[C@@H](O)[C@@H]1O[C@@H]1O[C@H](CO)[C@H](O)[C@H](O)[C@H]1O (stereo partly drawn) [Galβ1,3GlcNAc] | 49% | 2% |  | Relative activity (%) Rat (rat ST3N): 49%; Relative activity (%) Human (human ST3N): 48%
Asialofetuin: glycoprotein acceptor (Galβ1,3GalNAc-Thr/Ser and Galβ1,4GlcNAc-R) | 18% | 26% | sialic acid was incorporated; also recorded: best acceptor | 
GalNAcβ1,4Galβ1,4Glcβ1-Cer [GalNAcβ1,4Galβ1,4Glcβ1-Cer (Asialo-GM2)] | 0% | 0.5% |  | 
Galβ1,4GlcNAcβ1,3Galβ1,4Glcβ1-Cer [Galβ1,4GlcNAcβ1,3Galβ1,4Glcβ1-Cer (nLc4)] |  |  | also serving as substrates, but to a lesser extent | 
α1 -acid glycoprotein: intact glycoprotein examined as acceptor |  |  | not any significant amount of sialic acid incorporated | 
CC(=O)N[C@H]1C(O)O[C@H](CO)[C@H](O)[C@@H]1O[C@@H]1O[C@H](CO)[C@H](O)[C@H](O)[C@H]1O (stereo partly drawn) [Galβ1,3GalNAc] | 3% | 100% |  | Relative rate (%) ST3N (ST3N; acceptor 2.0 mM): 10%
Galβ1,3GalNAcβ1,4Galβ1,4Glcβ1-Cer | 8% | 88% | preferred one | Relative rate (%) ST3 (ST3): 64%; acceptor substrate for ST30 enzyme (in words) (ST3O): well
CC(=O)N[C@H]1[C@H](O[C@H]2[C@@H](O)[C@@H](CO)O[C@@H](O[C@H]3[C@H](O)[C@@H](O)C(O)O[C@@H]3CO)[C@@H]2O)O[C@H](CO)[C@@H](O[C@@H]2O[C@H](CO)[C@H](O)[C@H](O)[C@H]2O)[C@@H]1O[C@@H]1O[C@@H](C)[C@@H](O)[C@@H](O)[C@@H]1O (stereo partly drawn) [Galβ1,4(Fucα1,3)GlcNAcβ1,3Galβ1,4Glc] | 0% | 0% |  | Relative rate (%) ST3N (ST3N; acceptor 2.0 mM): 0%
GalNAcβ1,4(NeuAcα2-3)Galβ1,4Glcβ1-Cer | 0% | 0.3% |  | Relative rate (%) ST3 (ST3): 1%
intact fetuin: glycoprotein examined as acceptor |  |  | not any significant amount of sialic acid incorporated | 
CC(=O)N[C@H]1[C@H](O[C@H]2[C@@H](O)[C@@H](CO)O[C@@H](O[C@H]3[C@H](O)[C@@H](O)C(O)O[C@@H]3CO)[C@@H]2O)O[C@H](CO)[C@@H](O)[C@@H]1O[C@@H]1O[C@H](CO)[C@H](O)[C@H](O)[C@H]1O (stereo partly drawn) [Galβ1,3GlcNAcβ1,3Galβ1,4Glc (LNT), Galβ1,3GlcNAcβ1,3Galβ1,4Glc] | 100% | 0.5% |  | Relative activity (%) Rat (rat ST3N): 100%; Relative rate (%) ST3N (ST3N; acceptor 2.0 mM): 100%
NeuAcα2,3Galβ1,4Glcβ1-Cer [NeuAcα2,3Galβ1,4Glcβ1-Cer (GM3)] | 0% | 0.1% |  | 
Galβ1,3GalNAcβ1,4(NeuAcα2-3)Galβ1,4Glcβ1-Cer | 0% | 47% | also serving as substrates, but to a lesser extent | acceptor substrate for ST30 enzyme (in words) (ST3O): well
Galβ1,4Glcβ1-Cer [Galβ1,4Glcβ1-Cer (LacCer)] | 0% | 0.1% | low but significant level incorporation | 
CC(=O)N[C@H]1[C@H](O[C@H]2[C@@H](O)[C@@H](CO)O[C@@H](O[C@H]3[C@H](O)[C@@H](O)C(O)O[C@@H]3CO)[C@@H]2O)O[C@H](CO)[C@@H](O[C@@H]2O[C@@H](C)[C@@H](O)[C@@H](O)[C@@H]2O)[C@@H]1O[C@@H]1O[C@H](CO)[C@H](O)[C@H](O)[C@H]1O (stereo partly drawn) [Galβ1,3(Fucα1,4)GlcNAcβ1,3Galβ1,4Glc] | 0% | 0% |  | Relative rate (%) ST3N (ST3N; acceptor 2.0 mM): 0%
Form A: 48 kDa molecular weight form of the porcine liver α2,3 sialyltransferase (protein) TLKLLTLLVLFIFLTSFFLNYSHTVVTTAWFPKQMVIELSENFKKLMKYPYRPCTCTRCIEEQRVSAWFDERFNRSMQPLLTAKNAHLEEDTYKWWLRLQREKQPNNLNDTIRELFQVVPGNVDPLLEKRLVSCRRCAVVGNSGNLKESYYGPQIDSHDFVLRMNKAPTEGFEADVGSKTTHHFVYPESFRELAQEVSMILVPFKTTDLEWVISATTTGTISHTYVPVPAKIKVKKEKILIYHPAFIKYVFDRWLQGHGRYPSTGILSVIFSLHICDEVDLYGFGADSKGNWHHYWENNPSAGAFRKTGVHDGDFESNVTTILASINKIRIFKGR |  |  |  | specific activity [1]: 8-10 units/mg protein
porcine Galβ1,3GalNAc α2,3 sialyltransferase (protein) NYSHTVVTTAWFPKQMVIELSENFKKLMKYPYRPCTCTRCIEEQRVSAWFDERFNRSMQPLLTAKNAHLEEDTYKWWLRLQREKQPNNLNDTIRELFQVVPGNVDPLLEKRLVSCRRCAVVGNSGNLKESYYGPQIDSHDFVLRMNKAPTEGFEADVGSKTTHHFVYPESFRELAQEVSMILVPFKTTDLEWVISATTTGTISHTYVPVPAKIKVKKEKILIYHPAFIKYVFDRWLQGHGRYPSTGILSVIFSLHICDEVDLYGFGADSKGNWHHYWENNPSAGAFRKTGVHDGDFESNVTTILASINKIRIFKGR |  |  |  | specific activity [1]: 8-10 units/mg protein
